Laboratory results reported in paper PMC7179312 (Antimicrobial Agents and Chemotherapy, 2020).

Tests used:
KPC-2 D179Y = target: T1, KPC-2 D179Y (Klebsiella pneumoniae, UniProt Q9F663, D178Y); assay: IC50 of inhibition of ceftazidime hydrolysis; type: biochemical
T1 construct: 6xHis (C); made in house; host or cells: E. coli BL21(DE3) pLys, pET28a
Procedure: (§1) Enzymes were mixed with BLIs at concentrations varying from 160 to 0.0027 μM in buffer A and incubated for 10 min, and 100 μM (for wild-type KPC-2) or 10 μM (for the D179Y mutant) CFTZ was subsequently added. Substrate cleavage profiles were recorded at 260 nm every 10 s for 10 min. Initial rates of reaction were calculated and exported to Prism software to calculate IC50s using the “dose-response – inhibition, variable slope (four parameters)” equation.

KPC-2 [1] = target: T2, KPC-2 (Klebsiella pneumoniae, UniProt Q9F663); assay: IC50 of inhibition of ceftazidime hydrolysis; type: biochemical
T2 construct: 6xHis (C); made in house; host or cells: E. coli BL21(DE3) pLys, pET28a
Procedure: as §1

KPC-2 [2] = target: T2, KPC-2; conditions: NCF hydrolysis; cited from earlier work
[3] = test system: P. aeruginosa PAM1154 carrying pUCP24 vector (PAM4175); assay: MIC, CLSI broth microdilution; type: cell-based; conditions: Pseudomonas aeruginosa, drug alone
Description: The effects of KPC mutations on resistance to various antibiotics were investigated. For these studies, pUCP24 plasmids carrying wild-type and mutant blaKPC-2 genes as well as the pUCP24 vector were transformed into PAM1154, an efflux-deficient strain of Pseudomonas aeruginosa. In this host, the effect of β-lactamases on β-lactam MIC is amplified due to the slowed uptake of β-lactams across the low-permeability outer membrane without interference by efflux of either β-lactams or BLIs. Consequently, this host allows detection of β-lactamase activity (as an MIC increase) of low-catalytic-efficiency enzymes that rely heavily on the low permeability of the outer membrane. Using the strain that lacks efflux pumps ensures no interference from efflux in interpreting results. We next evaluated the steady-state protein expression levels in bacterial cells. […] The observed discrepancy with our results could be attributed to the difference in either the expression vector or host bacteria.
For microbiological studies, wild-type blaKPC-2 and its mutant variants were cloned into the shuttle vector pUCP24. Resulting plasmids were transformed in the efflux-deficient strain of P. aeruginosa PAM1154 using selection on 15 μg/ml of gentamicin. Using a strain of P. aeruginosa as opposed to E. coli as a host for various cloned genes was based on the following consideration. As well documented elsewhere ([41]), P. aeruginosa has a low-permeability outer membrane; consequently, the effect of β-lactamases on MIC is amplified in P. aeruginosa compared to that in E. coli due to the slowed uptake of β-lactams. Thus, this host is appropriate to detect β-lactamase activity (as an MIC increase) of low-catalytic-efficiency enzymes that rely heavily on low permeability of the outer membrane. […] MICs were determined using the Clinical and Laboratory Standards Institute (CLSI) broth microdilution method as described in CLSI document M07-A11 ([42]). Potentiation of antibiotic activity by various BLIs in bacterial strains carrying wild-type (WT) and mutant KPC-2 genes was performed using standard checkerboard methodology ([43]). BLI potency was defined as PV50 (PV, potentiation value). PV50 is the minimal concentration of a BLI that is required to reduce the antibiotic MIC to the middle of the MIC range (E50) where the highest MIC is the MIC for a KPC-producing strain with no inhibitor added and the lowest MIC is the MIC for the vector-only strain, corresponding to the complete inhibition of KPC. E50 is calculated as the square root of the product of the antibiotic MICs for the KPC-producing and the vector-only strains.

KPC-2 L169P = target: T3, KPC-2 L169P (Klebsiella pneumoniae, UniProt Q9F663, L168P); assay: Steady-state Ki with nitrocefin as substrate (method of Waley); type: biochemical; conditions: NCF substrate, 10 min preincubation, 37°C
T3 construct: 6xHis (C); made in house; host or cells: E. coli (pET28a construct; BL21(DE3) pLys is named only for wild type and D179Y)

[4] = test system: P. aeruginosa PAM1154 carrying pUCP24 vector (PAM4175); assay: Checkerboard potentiation of antibiotic activity by BLIs; type: cell-based, Pseudomonas aeruginosa

SMILES	IC50 (KPC-2 D179Y)	IC50 (KPC-2 [1])	Kd (KPC-2 [2])	k2/K (KPC-2 [2])	k−2 (KPC-2 [2])	MIC [3]	Ki (KPC-2 L169P)	Antibiotic MIC with avibactam at 4 μg/ml ([4]; avibactam 4 μg/ml)	Antibiotic MIC, No BLI ([4]; no BLI)	Antibiotic MIC with vaborbactam at 8 μg/ml ([4]; vaborbactam 8 μg/ml)
O=C(O)C[C@@H]1CC[C@H](NC(=O)Cc2cccs2)B(O)O1 [Vaborbactam, vaborbactam]	1900 ± 300 nM	940 ± 20 nM	8 nM	5.5 ± 0.5 × 10^3 M^−1 s^−1	4.3 ± 0.6 × 10^−5 s^−1	> 256 µg/mL	190 ± 20 nM	–	–	–
CO/N=C(\C(=O)N[C@@H]1C(=O)N2C(C(=O)[O-])=C(C[N+]3(C)CCCC3)CS[C@H]12)c1csc(N)n1 [Cefepime, cefepime]	–	–	–	–	–	0.125 µg/mL	–	0.125 µg/mL	0.125 µg/mL	0.125 µg/mL
